For data set [1] the following is noted: cited from earlier work.
In data set [2] the target is T1, PAD4 (Homo sapiens, UniProt Q9UM07).
T1 construct: purchased Cayman Chemical
The experiment in a line: PAD4 enzyme inhibition assay (Cayman PAD4 inhibitor screening kit, AMC). Particulars: n = 3; read-out: Inhibitory activity IC50 PAD4. The format is biochemical. The protocol: chromatography with ACN:H2O (0.02% formic acid) as the mobile phase, and then […]
(§1) PAD4 Enzyme Inhibition Assays
(§2) PAD4 Inhibitor Screening Assay Kit (AMC) was purchased from Cayman. Different concentrations of the test compounds were added to a 96-well plate with PAD4 enzyme enzyme and incubated at 37 °C for 10 minutes or 30 minutes. Then […] was added toinitiate the reaction and incubated at 37 °C for 20 min. The reaction was terminated by the addition of Develop solution.
Fluorescence analysis was performed at excitation wavelengths of 355 ~ 365 nm and emission wavelengths of 445 ~ 455 nm. The fluorescence signal was inversely proportional to the amount ofcitrullination. IC50 were analyzed using GraphPad Prism […]
(§3) Microsomal metabolic stability assay protocol
Pooled liver microsomes from male C57BL/6 mouse (MLM) and mixed gender human (HLM) were obtained from Sekisui XenoTech (Kansas City, KS). Stock solutions of compounds (1 mM) were prepared in DMSO and diluted to 10 μM working solution using phosphate buffer (100 mM, pH 7.4). Microsomes (20 mg/mL) were thawed on ice and diluted to 1 mg/mL using potassium phosphate buffer (100 mM, pH 7.4). The mixture of liver microsomes and test compounds (0.2 μM) was (1 picture or pasted object on this page, not shown here)

Data set [3] in a line: Microsomal metabolic stability, mouse liver microsomes. The format is in vitro ADME. Particulars: male, C57BL/6, mouse, pooled liver microsomes; for remaining at 1 h, 0.2 μM: pH 7.4, 60 min, n = 3, read-out: %remaining in MLM; for half-life at 0.2 μM: pH 7.4, MLM. Here is the method:
(§4) The metabolic stability of the compounds was evaluated using mouse liver microsomes (MLM) and human liver microsomes (HLM). Each compound was tested at a final concentration of 0.2 μM to determine their half-lives. […]
as §3
(§5) Pooled liver microsomes from male C57BL/6 mouse (MLM) and mixed gender human (HLM) were obtained from Sekisui XenoTech (Kansas City, KS). Stock solutions of compounds (1 mM) were prepared in DMSO and diluted to 10 μM working solution using phosphate buffer (100 mM, pH 7.4). Microsomes (20 mg/mL) were thawed on ice and diluted to 1 mg/mL using potassium phosphate buffer (100 mM, pH 7.4). The mixture of liver microsomes and test compounds (0.2 μM) was (1 picture or pasted object on this page, not shown here) […]
(§6) preincubated at 37°C for 10 min. Next, NADPH-regenerating system (final concentrations of 1 mM NADP+, 5 mM glucose-6-phosphate, and 1 U/mL glucose-6-phosphate dehydrogenase) as a cofactor was added to the incubation mixtures at the final volume of 1000 μL to initiate the metabolic reactions. Quenching of the metabolic reaction was performed at specific intervals: 0, 5, 15, 30, and 60 min by adding100 μL of reaction mixtures to ice-cold acetonitrile (4 volumes) containing 25 nM internal standard. The samples were kept on ice for 15 minutes, followed by protein precipitation through centrifugation at 3600 rpm for 10 minutes at4°C. Finally, the liquid chromatography-mass spectrometry/MS (LC-MS/MS) analysis was conducted on obtained supernatants. To ensure accuracy, all measurements were […]
(§7) The percent of remaining compound (%R) compared to zero sample time was obtained at each time point using LC-MS peak areas. A plot was created for the natural logarithm (ln) of % R against the incubation time to determine the elimination rate constant from the slope of the linear part. The in vitro t1/2was measured by […]
(§8) While the following Eq. (2) was used for calculating CLint (μL/min/mg): […]
In general terms: Liver microsomes are a subcellular fraction often used to study metabolism.

The next data set has as its target PAD2 (Homo sapiens, UniProt Q9Y2J8). Description: PAD2 inhibitory activity. The format is biochemical. Particulars: n = 3.
A further data set in a line: MTT cytotoxicity assay. The format is cell-based. To be noted: human, A549 cells, 48-hour incubation; for viability at 48 h, 500 µM: read-out: Cell viability of A549 cells; for IC50 at 48 h: read-out: IC50 against A549 cells (cytotoxicity). The protocol: (§9) The cytotoxicity of three compounds on A549 cells was evaluated using the MTT assay.
(§10) In vitro cytotoxicity was evaluated using the MTT
(§11) (3-(4,5-dimethylthiazol-2-yl)-2,5-diphenyltetrazolium bromide) assay. Freshly trypsinized A549 cells were seeded into 96-well plates at a density of 5 × 10⁴ cells/mL, with 100 µL per well, and incubated at 37°C in a 5% CO₂ atmosphere for 12 hours. […]
(§12) concentrations of 500 μM, 50 μM, and 5 μM (25 µL per well), followed by 48-hour incubation. After this period, MTT solution (5 mg/mL) was added to each well at 25 µL per well, and the plates were incubated for an additional 4 hours. Control wells containing untreated cells were handled identically. Following incubation, the medium in the 96-well plate was removed, and 100 µL of DMSO was added to each well to dissolve the formazan crystals produced by the reduction of MTT in viable cells. Absorbance was measured using a microplate reader. Cell viability was determined using the following formula: Cell viability (%) = (OD-treated cells)/(OD […]
Background: Tetrazolium dyes change colour on reduction, which living cells bring about.

Another data set has as its system A549 cells. The experiment in a line: MTT cytotoxicity assay. The class given is cell-based. To be noted: 50 μM and 5 μM, 48-hour incubation. The protocol: as §9, §10, §11, §12
Data set [4] can be described thus: Microsomal metabolic stability, human liver microsomes. Particulars: both sexes, pooled liver microsomes; for remaining at 1 h, 0.2 μM: pH 7.4, 60 min, n = 3, read-out: %remaining in HLM; for half-life at 0.2 μM: pH 7.4, HLM, read-out: half-life (t1/2) in human liver microsomes. The class given is in vitro ADME. The protocol:
as §4, §3, §5, §6, §7, §8

The target in the next data set is T2, PAD1 (Homo sapiens, UniProt Q9ULC6).
T2 sequence (Q9ULC6 1-663): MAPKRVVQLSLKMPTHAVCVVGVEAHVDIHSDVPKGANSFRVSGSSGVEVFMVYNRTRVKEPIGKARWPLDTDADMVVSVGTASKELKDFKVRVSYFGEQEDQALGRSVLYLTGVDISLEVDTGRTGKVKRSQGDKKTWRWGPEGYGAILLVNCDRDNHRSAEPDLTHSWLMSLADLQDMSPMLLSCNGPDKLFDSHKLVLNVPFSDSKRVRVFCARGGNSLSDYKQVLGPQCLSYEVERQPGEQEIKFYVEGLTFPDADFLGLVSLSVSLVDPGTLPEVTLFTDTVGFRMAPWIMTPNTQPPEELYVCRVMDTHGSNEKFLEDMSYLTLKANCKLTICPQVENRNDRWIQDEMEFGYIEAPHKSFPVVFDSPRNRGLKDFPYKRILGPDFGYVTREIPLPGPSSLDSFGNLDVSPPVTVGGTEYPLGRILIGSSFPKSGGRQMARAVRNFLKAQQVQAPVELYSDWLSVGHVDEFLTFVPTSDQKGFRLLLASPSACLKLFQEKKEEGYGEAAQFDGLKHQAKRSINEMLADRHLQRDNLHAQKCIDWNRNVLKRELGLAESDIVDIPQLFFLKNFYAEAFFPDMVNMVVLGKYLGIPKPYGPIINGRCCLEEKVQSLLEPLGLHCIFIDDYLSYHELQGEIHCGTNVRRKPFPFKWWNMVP
Description: PAD1 inhibitory activity. The format is biochemical. Particulars: n = 3.

Data set [5] deals with T1, PAD4. The experiment in a line: Time-dependent PAD4 inhibition assay (pre-incubation 10 or 30 min). Particulars: BB-Cl-amidine 1 μM, 7 125 μM, 8 45 μM, n = 3. The class given is biochemical. Here is the method: To test this hypothesis, the three compounds (3, 7 and 8) were further assessed through a time-dependent inhibition assay. This assay involved pre-incubating the compounds with the PAD4 enzyme for 10 and 30 min before initiation of the enzymatic reaction.
Fig. 3. Inhibition of PAD4 with a pre-incubation of the enzyme and tested compounds for 10- or 30-min. […]
as §1, §2
Fluorescence analysis was performed at excitation wavelengths of 355 ~ 365 nm and emission wavelengths of 445 ~ 455 nm. The fluorescence signal was inversely

The mark [6] stands for this setting: read-out: half-life (t1/2) in mouse liver microsomes.
The mark [7] stands for this setting: rough estimation beyond the 60 min assay, read-out: t1/2 in MLM, rough estimation.

Each structure is given as a SMILES string. Where two headings read alike, the source gives them in different places.

T1 sequence (Q9UM07 whole entry): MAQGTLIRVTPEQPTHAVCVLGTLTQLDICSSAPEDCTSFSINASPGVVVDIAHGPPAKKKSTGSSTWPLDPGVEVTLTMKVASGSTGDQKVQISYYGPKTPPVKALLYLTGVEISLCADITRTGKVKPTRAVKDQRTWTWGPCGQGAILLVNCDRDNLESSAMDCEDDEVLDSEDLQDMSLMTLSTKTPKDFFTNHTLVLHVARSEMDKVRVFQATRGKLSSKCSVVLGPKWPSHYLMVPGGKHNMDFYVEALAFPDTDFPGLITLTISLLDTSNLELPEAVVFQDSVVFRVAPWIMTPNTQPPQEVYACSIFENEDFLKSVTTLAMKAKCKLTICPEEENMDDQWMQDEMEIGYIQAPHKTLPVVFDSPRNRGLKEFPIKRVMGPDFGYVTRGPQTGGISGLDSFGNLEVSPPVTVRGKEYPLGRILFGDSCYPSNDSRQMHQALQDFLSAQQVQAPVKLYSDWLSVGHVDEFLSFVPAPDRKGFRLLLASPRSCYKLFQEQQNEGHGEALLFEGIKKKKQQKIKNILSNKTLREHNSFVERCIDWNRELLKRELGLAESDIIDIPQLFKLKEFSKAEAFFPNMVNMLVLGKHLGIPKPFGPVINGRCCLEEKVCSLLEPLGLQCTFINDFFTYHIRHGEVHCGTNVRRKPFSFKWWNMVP
Sequence of PAD2 (Q9Y2J8 whole entry, species assumed): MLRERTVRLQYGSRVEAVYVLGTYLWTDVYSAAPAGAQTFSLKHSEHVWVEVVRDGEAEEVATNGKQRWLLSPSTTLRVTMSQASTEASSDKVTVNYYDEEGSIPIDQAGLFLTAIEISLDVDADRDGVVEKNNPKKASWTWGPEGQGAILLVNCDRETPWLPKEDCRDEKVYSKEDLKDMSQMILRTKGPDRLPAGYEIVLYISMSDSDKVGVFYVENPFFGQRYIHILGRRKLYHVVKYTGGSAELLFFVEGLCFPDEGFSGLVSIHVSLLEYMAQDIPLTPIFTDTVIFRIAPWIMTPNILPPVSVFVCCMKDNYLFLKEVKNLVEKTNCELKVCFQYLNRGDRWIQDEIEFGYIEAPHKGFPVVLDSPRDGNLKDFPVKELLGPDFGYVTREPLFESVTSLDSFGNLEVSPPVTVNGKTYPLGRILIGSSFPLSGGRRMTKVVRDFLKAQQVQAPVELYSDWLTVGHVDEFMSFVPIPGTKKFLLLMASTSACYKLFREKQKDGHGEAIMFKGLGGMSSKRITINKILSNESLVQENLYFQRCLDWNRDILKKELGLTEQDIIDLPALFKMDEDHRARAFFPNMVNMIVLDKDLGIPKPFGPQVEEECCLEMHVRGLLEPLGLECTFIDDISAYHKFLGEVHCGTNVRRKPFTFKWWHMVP

As to `N=C(CCl)NCCC[C@H](NC(=O)c1ccc(B(O)O)cc1)C(=O)NCc1ccccc1` [YJ-4B], the “t1/2 (pharmacokinetic studies)” value in data set [1] is given as 0.35 h.
Regarding `N=C(CCl)NCCC[C@H](Nc1ccc([N+](=O)[O-])c2nonc12)C(=O)NCc1ccccc1` [ZD-E-1], in data set [1] (in vivo), the “t1/2 (pharmacokinetic studies)” value was 0.41 h.
For `N=C(CO)NCCC[C@H](NC(=O)c1ccc(-c2ccccc2)cc1)c1nc2ccccc2[nH]1` [Compound 7], the IC50 – broadly, the concentration that gives 50% inhibition – is 125 ± 10.2 µM at PAD4 [2], 352 ± 21.3 µM at PAD2 and 194 ± 8.21 µM against PAD1. For the same compound, the results for the fraction remaining at 1 h, 0.2 μM in [3] and in [4] were 75.9 ± 4.75% and 90.3 ± 10.6%, respectively. In addition, the half-life at 0.2 μM in [3] (setting [6]) is over 1 h; in [3] (setting [7]), about 2.65 h; in data set [4], over 1 h. The viability (commonly a read-out of living cells in per cent, often relative to untreated cells) at 48 h, 500 µM in the data set “MTT cytotoxicity assay” was 26.8%. For the same compound, the IC50 at 48 h in the data set “MTT cytotoxicity assay” is about 455 µM. The “Cytotoxicity on A549 cells” value with A549 cells is reported as “no cytotoxicity”. In addition, at PAD4 [5], the “%inhibition of PAD4, pre-incubation 10 min” value is recorded as 31.46%. In addition, the “%inhibition of PAD4, pre-incubation 30 min” value at PAD4 [5] came out at 36.86%.
As to `O=C(CO)NCCC[C@H](NC(=O)c1ccc(-c2ccccc2)cc1)c1nc2ccccc2[nH]1` [Compound 8], the IC50 was determined as 46.5 ± 4.46 µM on PAD4 [2], 74.9 ± 6.48 µM against PAD2 and 32 ± 0.78 µM against PAD1. For the same compound, the fraction remaining (as a rule, what is left of the initial amount, in per cent) at 1 h, 0.2 μM in data set [3] turned out to be 63 ± 4.85%; in data set [4], 73.2 ± 1.89%. Also, the results for the half-life at 0.2 μM in data set [3] (setting [6]), in [3] (setting [7]) and in [4] were over 1 h, about 1.45 h and over 1 h, respectively. Also, in the data set “MTT cytotoxicity assay”, the viability at 48 h, 500 µM turned out to be 103%. Besides, in the data set “MTT cytotoxicity assay”, the half-maximal inhibitory concentration (IC50) at 48 h is over 500 µM. The “Cytotoxicity on A549 cells” value in the data set with A549 cells is reported as “no cytotoxicity”. Also, on PAD4 [5], the “%inhibition of PAD4, pre-incubation 10 min” value is 49.28%. Besides, on PAD4 [5], the “%inhibition of PAD4, pre-incubation 30 min” value is given as 51.44%.
With `N=C(CCl)NCCC[C@H](NC(=O)c1ccc(-c2ccccc2)cc1)c1nc2ccccc2[nH]1` [BB-Cl-amidine, reference compound], the amount remaining at 1 h, 0.2 μM in [3] is 10.4 ± 1.42%; in data set [4], 51.8 ± 7.48%. Moreover, the results for the half-life at 0.2 μM in [3] (setting [6]) and in data set [4] were 0.302 h and 1.03 h, respectively.

Values taken from article PMC12121987, “New structural scaffolds to enhance the metabolic stability of arginine-derived PAD4 inhibitors” (Results in chemistry, 2025).
